The target of this test is α4β7 integrin (Homo sapiens (Human), UniProt P13612+P26010). As to the kind of experiment: α4β7 Integrin Cell Capture Assay. The class given is cell-based. To be noted: RPMI8866 cells captured on MadCAM-1 extracellular domain-coated plate.

The results in this text go back to US11116760B2 (Gilead Sciences, Inc., priority 2018, dated 2021).

Sequence of α4β7 integrin (P13612 34-1032): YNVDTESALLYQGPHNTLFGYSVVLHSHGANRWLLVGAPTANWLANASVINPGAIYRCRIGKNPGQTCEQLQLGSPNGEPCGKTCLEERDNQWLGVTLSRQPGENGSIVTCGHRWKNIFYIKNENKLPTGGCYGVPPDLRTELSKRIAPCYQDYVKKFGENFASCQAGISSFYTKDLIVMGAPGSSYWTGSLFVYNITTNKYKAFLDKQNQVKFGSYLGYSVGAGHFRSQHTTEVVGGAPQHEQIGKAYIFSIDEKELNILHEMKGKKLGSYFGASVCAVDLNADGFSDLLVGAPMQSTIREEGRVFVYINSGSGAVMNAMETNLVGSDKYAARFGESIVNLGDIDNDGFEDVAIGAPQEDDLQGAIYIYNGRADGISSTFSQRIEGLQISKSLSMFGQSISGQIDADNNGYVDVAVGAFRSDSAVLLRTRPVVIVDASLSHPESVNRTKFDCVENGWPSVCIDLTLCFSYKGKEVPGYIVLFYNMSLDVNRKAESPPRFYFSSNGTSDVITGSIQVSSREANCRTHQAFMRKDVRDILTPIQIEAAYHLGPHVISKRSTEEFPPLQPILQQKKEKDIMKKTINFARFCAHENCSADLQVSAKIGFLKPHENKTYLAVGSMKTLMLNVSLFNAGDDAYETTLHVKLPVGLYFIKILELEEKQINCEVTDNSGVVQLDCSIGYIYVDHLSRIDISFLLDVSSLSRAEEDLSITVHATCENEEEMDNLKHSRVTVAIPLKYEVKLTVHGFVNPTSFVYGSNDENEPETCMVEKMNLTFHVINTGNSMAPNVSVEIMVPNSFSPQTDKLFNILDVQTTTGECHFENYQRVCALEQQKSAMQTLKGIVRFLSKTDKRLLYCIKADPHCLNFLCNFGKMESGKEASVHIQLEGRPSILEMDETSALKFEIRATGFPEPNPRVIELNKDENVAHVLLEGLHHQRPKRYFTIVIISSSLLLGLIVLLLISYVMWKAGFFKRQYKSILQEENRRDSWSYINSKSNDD
Sequence of α4β7 integrin (P26010 20-798): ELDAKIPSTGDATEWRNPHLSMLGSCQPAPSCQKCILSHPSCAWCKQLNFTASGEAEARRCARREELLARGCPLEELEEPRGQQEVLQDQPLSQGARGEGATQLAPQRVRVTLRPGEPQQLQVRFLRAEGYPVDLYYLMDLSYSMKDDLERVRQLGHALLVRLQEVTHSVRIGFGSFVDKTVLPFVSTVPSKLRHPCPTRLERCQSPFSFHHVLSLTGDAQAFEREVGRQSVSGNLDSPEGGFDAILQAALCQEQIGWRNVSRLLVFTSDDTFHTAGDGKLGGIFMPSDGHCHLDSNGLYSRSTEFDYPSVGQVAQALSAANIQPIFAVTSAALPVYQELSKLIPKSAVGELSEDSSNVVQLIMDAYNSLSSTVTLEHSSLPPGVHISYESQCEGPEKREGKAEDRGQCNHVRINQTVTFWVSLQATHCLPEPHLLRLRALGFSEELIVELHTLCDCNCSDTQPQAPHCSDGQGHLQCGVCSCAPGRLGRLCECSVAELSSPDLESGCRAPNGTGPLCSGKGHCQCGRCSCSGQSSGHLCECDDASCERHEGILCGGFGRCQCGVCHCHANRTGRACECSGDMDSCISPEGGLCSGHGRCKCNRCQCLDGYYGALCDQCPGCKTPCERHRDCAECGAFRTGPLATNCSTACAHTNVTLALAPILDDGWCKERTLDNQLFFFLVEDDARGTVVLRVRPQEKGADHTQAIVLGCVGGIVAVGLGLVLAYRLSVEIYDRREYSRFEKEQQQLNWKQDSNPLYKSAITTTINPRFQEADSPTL

As to `Cc1cc(N2CCOC[C@@H]2C(F)(F)F)cc(F)c1C(=O)N[C@@H](Cc1ccc(-c2nc(C)c(C)n(C)c2=O)c2ncccc12)C(=O)O` [Example 477], the concentration giving a half-maximal response (EC50) (commonly the concentration at which the effect is half-maximal) is 0.115 nM.
